Key:
Assay type in all cases: cell-based, human
[1] = test system: CCRF-CEM; test: NCI 60 panel five-dose growth inhibition, Leukemia; conditions: for GI50: Homo sapiens
[2] = test system: HL-60(T13); test: NCI 60 panel five-dose growth inhibition, Leukemia; conditions: for GI50: Homo sapiens
[3] = test system: MOLT-4; test: NCI 60 panel five-dose growth inhibition, Leukemia; conditions: MOLT-4, Leukemia; for GI50: Homo sapiens
[4] = test system: RPMI-8226; test: NCI 60 panel five-dose growth inhibition, Leukemia; conditions: RPMI-8226, Leukemia; for GI50: Homo sapiens
[5] = test system: A549/ATCC; test: NCI 60 panel five-dose growth inhibition, Non-Small Cell Lung Cancer; conditions: for GI50: Homo sapiens
[6] = test system: HOP-92; test: as above; conditions: HOP-92, Non-Small Cell Lung Cancer; for GI50: Homo sapiens
[7] = test system: COLO 205; test: NCI 60 panel five-dose growth inhibition, Colon Cancer; conditions: COLO 205, Colon Cancer; for GI50: Homo sapiens
[8] = test system: HCC-2998; test: as above; conditions: HCC-2998, Colon Cancer; for GI50: Homo sapiens
[9] = test system: HCT-116; test: as above; conditions: HCT-116, Colon Cancer; for GI50: Homo sapiens
[10] = test system: 1-ICT-15; test: as above; conditions: 1-ICT-15, Colon Cancer; for GI50: Homo sapiens
[11] = test system: HT29; test: as above; conditions: for GI50: Homo sapiens, HT-29
[12] = test system: KM12; test: as above; conditions: for GI50: Homo sapiens
[13] = test system: SW-620; test: as above; conditions: SW-620, Colon Cancer; for GI50: Homo sapiens
[14] = test system: SF-268; test: NCI 60 panel five-dose growth inhibition, CNS Cancer; conditions: SF-268, CNS Cancer; for GI50: Homo sapiens
[15] = test system: SF-295; test: as above; conditions: SF-295, CNS Cancer; for GI50: Homo sapiens
[16] = test system: SF-539; test: as above; conditions: SF-539, CNS Cancer; for GI50: Homo sapiens
[17] = test system: SNB-19; test: as above; conditions: SNB-19, CNS Cancer; for GI50: Homo sapiens
[18] = test system: SNB-75; test: as above; conditions: SNB-75, CNS Cancer; for GI50: Homo sapiens
[19] = test system: U251; test: as above; conditions: for GI50: Homo sapiens, U-251
[20] = test system: M14; test: NCI 60 panel five-dose growth inhibition, Melanoma
[21] = test system: MDA-MB-435; test: NCI 60 panel five-dose growth inhibition, Melanoma; conditions: Homo sapiens; MDA-MB-435, Melanoma
[22] = test system: SK-MEL-2; test: NCI 60 panel five-dose growth inhibition, Melanoma; conditions: SK-MEL-2, Melanoma; for GI50: Homo sapiens
[23] = test system: SK-MEL-28; test: NCI 60 panel five-dose growth inhibition, Melanoma; conditions: SK-MEL-28, Melanoma; for GI50: Homo sapiens
[24] = test system: IGROV1; test: NCI 60 panel five-dose growth inhibition, Ovarian Cancer; conditions: for GI50: Homo sapiens, IGROV-1
[25] = test system: OVCA R-3; test: as above; conditions: OVCA R-3, Ovarian Cancer; for GI50: Homo sapiens, OVCAR-3
[26] = test system: OVCAR-4; test: as above; conditions: OVCAR-4, Ovarian Cancer; for GI50: Homo sapiens
[27] = test system: SK-OV-3; test: as above; conditions: SK-OV-3, Ovarian Cancer; for GI50: Homo sapiens
[28] = test system: 786-0; test: NCI 60 panel five-dose growth inhibition, Renal Cancer; conditions: 786-0, Renal Cancer; for GI50: Homo sapiens
[29] = test system: ACHN; test: as above; conditions: for GI50: Homo sapiens
[30] = test system: CAKI-1; test: as above; conditions: CAKI-1, Renal Cancer; for GI50: Homo sapiens
[31] = test system: U0-31; test: as above; conditions: U0-31, Renal Cancer; for GI50: Homo sapiens
[32] = test system: PC-3; test: NCI 60 panel five-dose growth inhibition, Prostate Cancer; conditions: PC-3, Prostate Cancer; for GI50: Homo sapiens
[33] = test system: DU-145; test: as above; conditions: DU-145, Prostate Cancer; for GI50: Homo sapiens
[34] = test system: MCF7; test: NCI 60 panel five-dose growth inhibition, Breast Cancer; conditions: for GI50: Homo sapiens
[35] = test system: MDA-MB-231/ATCC; test: as above; conditions: for GI50: Homo sapiens
[36] = test system: MDA-MB-468; test: as above; conditions: MDA-MB-468, Breast Cancer; for GI50: Homo sapiens

COc1ccc(-c2n[nH]nc2-c2cc(OC)c(OC)c(OC)c2)cc1 [Example 6, 4-(4-methoxyphenyl)-5-(3,4,5-trimethoxyphenyl)-2H-1,2,3-triazole]
TGI [1]: >100000 nM | GI50 [1]: 33.7 nM | TGI [2]: 80 nM | GI50 [2]: 18.9 nM | GI50 [3]: 39.9 nM | TGI [3]: 11600 nM | GI50 [4]: 32.5 nM | TGI [4]: 11000 nM | TGI [5]: 22600 nM | GI50 [5]: 22.9 nM | TGI [6]: 540 nM | GI50 [6]: < 10 nM | TGI [7]: 70 nM | GI50 [7]: 26.7 nM | TGI [8]: 17500 nM | GI50 [8]: 39.4 nM | TGI [9]: 810 nM | GI50 [9]: < 10 nM | TGI [10]: >100000 nM | GI50 [10]: < 10 nM | TGI [11]: 12300 nM | GI50 [11]: 25.3 nM | TGI [12]: 11200 nM | GI50 [12]: < 10 nM | GI50 [13]: < 10 nM | TGI [13]: >100000 nM | GI50 [14]: 68.5 nM | TGI [14]: >100000 nM | GI50 [15]: < 10 nM | TGI [15]: 42800 nM | GI50 [16]: < 10 nM | GI50 [17]: 29.4 nM | TGI [17]: >100000 nM | GI50 [18]: < 10 nM | TGI [18]: 21900 nM | TGI [19]: 22700 nM | GI50 [19]: 20.1 nM | GI50 ([20]; Homo sapiens): < 10 nM | GI50 [21]: < 10 nM | GI50 [22]: < 10 nM | TGI [22]: 18100 nM | GI50 [23]: > 100 nM | TGI [23]: 34800 nM | TGI [24]: 30300 nM | GI50 [24]: 33.2 nM | GI50 [25]: < 10 nM | TGI [25]: <10 nM | GI50 [26]: 33.6 nM | TGI [26]: 57200 nM | GI50 [27]: < 10 nM | TGI [27]: 12700 nM | TGI [28]: 13500 nM | GI50 [28]: < 10 nM | TGI [29]: >100000 nM | GI50 [29]: < 10 nM | TGI [30]: >100000 nM | GI50 [30]: < 10 nM | GI50 [31]: < 10 nM | TGI [31]: 24600 nM | GI50 [32]: 18.4 nM | TGI [32]: 39400 nM | TGI [33]: >100000 nM | GI50 [33]: 25 nM | TGI [34]: 37900 nM | GI50 [34]: < 10 nM | TGI [35]: >100000 nM | GI50 [35]: 44.4 nM | GI50 [36]: 14.7 nM | TGI [36]: 30500 nM

COc1cc(-c2n[nH]nc2-c2ccc3c(c2)OCCO3)cc(OC)c1OC [Example 7, 4-(2,3-dihydrobenzo[b][1,4]dioxin-6-yl)-5-(3,4,5-trimethoxyphenyl)-2H-1,2,3-triazole]
TGI [1]: >100000 nM | GI50 [1]: 282 nM | GI50 [2]: 201 nM | GI50 [3]: 572 nM | TGI [3]: 51800 nM | GI50 [4]: 326 nM | TGI [4]: 22100 nM | TGI [5]: 50900 nM | GI50 [5]: 289 nM | TGI [6]: 1590 nM | GI50 [6]: 122 nM | TGI [7]: 1300 nM | GI50 [7]: 311 nM | TGI [8]: 24600 nM | GI50 [8]: > 1000 nM | TGI [9]: 15600 nM | GI50 [9]: 181 nM | TGI [10]: >100000 nM | GI50 [10]: 125 nM | TGI [11]: 12500 nM | GI50 [11]: 392 nM | TGI [12]: 11900 nM | GI50 [12]: 70 nM | GI50 [13]: 105 nM | TGI [13]: >100000 nM | GI50 [14]: > 1000 nM | TGI [14]: >100000 nM | GI50 [15]: 98.9 nM | TGI [15]: 3610 nM | GI50 [16]: 181 nM | TGI [16]: 540 nM | GI50 [17]: 501 nM | TGI [17]: >100000 nM | GI50 [18]: 82.4 nM | TGI [19]: 11200 nM | GI50 [19]: 302 nM | TGI [20]: 12000 nM | GI50 [21]: 94.8 nM | GI50 [22]: 23.6 nM | TGI [22]: 55700 nM | GI50 [23]: 244 nM | TGI [23]: 43500 nM | TGI [24]: >100000 nM | GI50 [24]: > 1000 nM | GI50 [25]: 432 nM | TGI [25]: 370 nM | GI50 [26]: 76.3 nM | TGI [26]: >100000 nM | GI50 [27]: 486 nM | TGI [27]: 93200 nM | TGI [28]: 63500 nM | GI50 [28]: 618 nM | TGI [29]: >100000 nM | GI50 [29]: 705 nM | TGI [30]: >100000 nM | GI50 [30]: 316 nM | GI50 [31]: 661 nM | TGI [31]: 72700 nM | GI50 [32]: 255 nM | TGI [32]: 43700 nM | TGI [33]: >100000 nM | GI50 [33]: 346 nM | TGI [34]: >100000 nM | GI50 [34]: 76.8 nM | TGI [35]: 31500 nM | GI50 [35]: 529 nM | GI50 [36]: 226 nM | TGI [36]: 25800 nM
